{
  "source": "patent US20140088144A1",
  "about": "“INHIBITING MICROBIAL INFECTIONS” (THE UNIVERSITY OF KANSAS, priority 2012, published 2014)",
  "key": {"ipaB": {"tested_on": "ipaB", "assay": "Shigella gene expression qRT-PCR, ipaB", "type": "cell-based, S. flexneri", "settings": "for Average ΔΔCt / Ct / RQ (2^−ΔΔCt) / ΔΔCt^1 (normalized to gapA) / ΔΔCt^2 (normalized to rrsA): ipaB, example data", "procedure": "(§1) Real-time quantitative reverse transcription PCR (qRT-PCR) was performed to test the effects of SE-1 on the expression of the VirF regulated genes virB, icsA, icsB and ipaB. The gapA and rrsA transcripts were used as internal controls. These are constitutively expressed Shigella genes commonly used to normalize mRNA levels. S. flexneri strain SME4331, which carries a null mutation in ipgD (ipgD), was grown at 30° C. overnight in TSB with ampicillin, diluted into the same medium to an OD600 of ˜0.1, and 1 ml aliquots further grown at 30° C. (DMSO only) or at 37° C. (SE-1 at 20 or 40 μM, or DMSO only, all 0.3% DMSO). Cells were grown to an OD600 of 1.0 (˜2.5 h) and RNA was isolated using an RNeasy MiniElute Cleanup Kit (Qiagen, Germantown, Md.), with DNA contamination eliminated using a Turbo DNase Kit (Ambion, Austin, Tex.). Complementary DNA (cDNA) was synthesized by random priming using a cDNA Reverse Transcription Kit (Applied Biosystems, Foster City, Calif.). Primers were tested for PCR specificity using genomic DNA template to ensure a single amplicon of the expected size for each primer pair, and validated using 5-fold dilutions of cDNA (2000 to 0.0256 ng) to ensure a linear plot of cycle threshold (Ct) versus cDNA concentration. Validated primer sets were used to test mRNA profiles in reactions that contained 10 ng of cDNA, 10 μl of SYBR green master mix (Applied Biosystems), specific primers (0.5 μM each) and water to a final volume of 20 μl, using a Step One Plus Real-Time PCR System (Applied Biosystems). The data was analyzed using the 2^−ΔΔCt method, and also by Applied Biosystems real-time analysis software. […] In brief, ΔΔCt values [ΔΔCt=(Ct,Target−Ct,Internal Control)SE-1−(Ct,Target−Ct,Internal Control)no SE-1] were separately obtained for each sample relative to two internal controls, gapA and rrsA. The ΔΔCt values relative to the two internal controls for each sample were averaged and then used to calculate the relative expression levels (2^−ΔΔCt). As a control, we also normalized each internal control to the other internal control. Control reactions used templates generated without reverse transcriptase to ensure low genomic DNA contamination. To ensure that products were not likely to be due to primer dimer artifacts, additional control samples were performed in which reaction mixtures contained primers alone (no template)."}, "MBP-VirF [1]": {"target": "T1, MBP-VirF (Shigella flexneri, UniProt P0A2T1)", "T1 construct": "made in house; host or cells: E. coli KS 1000, plasmid pMALvirF", "T1 sequence (P0A2T1 whole entry)": "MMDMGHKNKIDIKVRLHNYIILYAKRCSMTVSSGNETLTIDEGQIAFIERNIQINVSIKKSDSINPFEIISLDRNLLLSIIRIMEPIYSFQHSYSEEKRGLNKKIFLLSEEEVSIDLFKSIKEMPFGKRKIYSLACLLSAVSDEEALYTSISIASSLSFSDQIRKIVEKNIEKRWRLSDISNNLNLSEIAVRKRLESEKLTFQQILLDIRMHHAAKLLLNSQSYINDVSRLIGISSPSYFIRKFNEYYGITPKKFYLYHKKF", "assay": "EMSA in vitro DNA binding by VirF (MBP-VirF)", "type": "biochemical", "settings": "purified MBP-VirF", "procedure": "The IPTG inducible MBP-VirF expression plasmid, pMALvirF, was constructed by cloning virF downstream and in-frame with malE (encoding maltose binding protein, MBP) in the vector pMAL-c2X (New England Biolabs, Beverly, Mass.). MBP-VirF protein (referred to as VirF for simplicity) was purified using amylose affinity chromatography at 4° C. Briefly, pMALvirF was transformed into E. coli strain KS 1000 (New England Biolabs). The cells were grown to an OD600 of 0.5, transferred to 15° C., 0.1 mM IPTG was added, and then incubated overnight with shaking Cells were harvested and resuspended in 10 ml of binding buffer (20 mM Tris, 500 mM NaCl, 1 mM EDTA 1 mM DTT, pH 7.4). Cells were lysed by three freeze thaw cycles with lysozyme (0.4 mg/ml), tris (2-carboxyethyl)phosphine (TCEP, 1 mM) and phenylmethylsulfonyl fluoride (PMSF, 1 mM), at −80° C., followed by sonication and then centrifuged to remove cell debris. […]\nBinding of purified VirF to a DNA fragment containing the VirF binding site at virB was analyzed by electrophoretic mobility shift assay (EMSA) (68), in the absence or presence of SE-1. […] Gels were scanned using an Odyssey infrared imager (LI-COR, Lincoln, Nebr.), and quantified using Odyssey software, version 3.0.30. […]"}, "icsA": {"tested_on": "icsA", "assay": "Shigella gene expression qRT-PCR, icsA", "type": "cell-based, S. flexneri", "settings": "for Average ΔΔCt / Ct / RQ (2^−ΔΔCt) / ΔΔCt^1 (normalized to gapA) / ΔΔCt^2 (normalized to rrsA): icsA, example data", "procedure": "as §1"}, "MBP-VirF [2]": {"target": "T1, MBP-VirF", "assay": "Fluorescence-based thermal shift assay (Sypro Orange), VirF", "type": "binding", "procedure": "Binding of SE-1 to purified VirF was tested by comparing the VirF melting temperature (Tm) in the absence and presence of SE-1 using a thermal shift assay with the fluorescent dye Sypro Orange (Molecular Probes). This method is also known as differential scanning fluorimetry or DSF. As a control, we tested binding of SE-1 to the purified, unrelated, MBP-NS1-NTD protein (greater than 95% pure). […] The reactions were carried out in 0.1 ml PCR low profile 8-tube strips with optically clear flat caps (USA Scientific) in a StepOnePlus™ Real-Time PCR System (Applied Biosystems), heating from 25 to 99° C. in increments of 0.8° C. The data was analyzed using the Boltzmann sigmoidal model in the software Prism (GraphPad). Data points before and after the fluorescence intensity minimum and maximum, respectively, were excluded from fitting. The ΔTm values are the average of three independent experiments with two replicates in each experiment. A single, representative, experiment is shown."}},
  "data": [
    {"smiles": "CCCCN1C=C(c2ccc3ccccc3n2)C(C[N+](=O)[O-])c2ccccc21", "note": "(stereo not drawn) [Compound 1, 1-butyl-4-(nitromethyl)-3-quinolin-2-yl-4H-quinoline]", "values": [
      {"measurement": "reduction of ipaB expression", "setting": "ipaB; 40 μM inhibitor, P<0.05", "result": "up to 4 fold"},
      {"measurement": "Average ΔΔCt", "setting": "ipaB; SE-1 20 μM", "result": 1.11},
      {"measurement": "Ct", "setting": "ipaB; SE-1 20 μM", "result": 25.57},
      {"measurement": "RQ (2^−ΔΔCt)", "setting": "ipaB; SE-1 20 μM", "result": 0.46},
      {"measurement": "ΔΔCt^1 (normalized to gapA)", "setting": "ipaB; SE-1 20 μM", "result": 0.62},
      {"measurement": "ΔΔCt^2 (normalized to rrsA)", "setting": "ipaB; SE-1 20 μM", "result": 1.61},
      {"measurement": "Average ΔΔCt", "setting": "ipaB; SE-1 40 μM", "result": 2.20},
      {"measurement": "Ct", "setting": "ipaB; SE-1 40 μM", "result": 26.23},
      {"measurement": "RQ (2^−ΔΔCt)", "setting": "ipaB; SE-1 40 μM", "result": 0.22},
      {"measurement": "ΔΔCt^1 (normalized to gapA)", "setting": "ipaB; SE-1 40 μM", "result": 1.85},
      {"measurement": "ΔΔCt^2 (normalized to rrsA)", "setting": "ipaB; SE-1 40 μM", "result": 2.54},
      {"measurement": "inhibition of DNA binding by VirF", "setting": "MBP-VirF [1]", "result": "similarly inhibits"},
      {"measurement": "inhibition of DNA binding by VirF", "setting": "MBP-VirF [1]; listed as SE-1", "result": "fully inhibit DNA binding"},
      {"measurement": "icsA expression level", "setting": "icsA; 20 μM inhibitor, 37° C.", "result": "essentially unchanged"},
      {"measurement": "icsA expression level", "setting": "icsA; 40 μM inhibitor, P<0.05", "result": "significantly reduced"},
      {"measurement": "Average ΔΔCt", "setting": "icsA; SE-1 20 μM", "result": 0.04},
      {"measurement": "Ct", "setting": "icsA; SE-1 20 μM", "result": 27.88},
      {"measurement": "RQ (2^−ΔΔCt)", "setting": "icsA; SE-1 20 μM", "result": 0.97},
      {"measurement": "ΔΔCt^1 (normalized to gapA)", "setting": "icsA; SE-1 20 μM", "result": "−0.46"},
      {"measurement": "ΔΔCt^2 (normalized to rrsA)", "setting": "icsA; SE-1 20 μM", "result": 0.54},
      {"measurement": "Average ΔΔCt", "setting": "icsA; SE-1 40 μM", "result": 1.17},
      {"measurement": "Ct", "setting": "icsA; SE-1 40 μM", "result": 28.59},
      {"measurement": "RQ (2^−ΔΔCt)", "setting": "icsA; SE-1 40 μM", "result": 0.44},
      {"measurement": "ΔΔCt^1 (normalized to gapA)", "setting": "icsA; SE-1 40 μM", "result": 0.82},
      {"measurement": "ΔΔCt^2 (normalized to rrsA)", "setting": "icsA; SE-1 40 μM", "result": 1.52},
      {"measurement": "ΔTm for VirF", "setting": "MBP-VirF [2]; 40 μM SE-1", "result": 0.15, "unit": "°C"},
      {"measurement": "increase of Tm of VirF (ΔTm)", "setting": "MBP-VirF [2]; 80 μM SE-1, 1 μM VirF", "result": 0.61, "unit": "°C"}
    ]}
  ]
}
